# Measured values reported in patent publication US10183039B2, “Methods for the production of collagen IV” (Vanderbilt University, priority 2013, dated 2019).
# Where two headings read alike, the source gives them in different places.
# Key:
# PFHR-9 cells = assay: Collagen IV sulfilimine crosslink formation in PFHR-9 cell culture (NC1 hexamer, SDS-PAGE); format: cell-based, mouse; details: inhibitor present during cellular deposition of basement membrane; FIG. 2A: PHG 50 μM, MMI 1 mM, KI 10 mM, 3-AT 10 mM, BAPN 500 μM, putrescine 2.5 mM
# Drosophila eggs = details: PHG in the food, excess dietary (100 μM) Br^−
# Experimental: All eggs deposited in a quadrant of a 55 mm laying cage were moved to a fresh phytagel surface and oriented with dorsal appendages facing the surface for quantitation of the aspect ratio which is calculated by dividing the anterior-posterior axis length by the egg's diameter. Eggs were collected after 168 hours of exposure to standard or experimental diets.
# (FIG. 18B) Br^− concentration effect on egg aspect ratio, in single age-matched cohort of w^1118 flies, over time. Vertical axis represents mean aspect ratio (±S.E.M). […] Inset plotted as mean±95% C.I. and significance calculated with the Kruskall-Wallis test. […] PHG was administered in the food. All wild-type (w^1118) mothers were from the same cohort and reared identically, then divided into sub-cohorts for exposure to the indicated experimental diet.
# peroxidase = peroxidase (Drosophila melanogaster, UniProt Q9VZZ4); details: Nelson et al., 1994; read-out: half-maximum inhibitory concentration (IC50); cited from earlier work
# [1] = tested on: PFHR-9 basement membrane collagen IV; assay: HEK293 cell overlay on uncrosslinked PFHR-9 collagen IV networks; format: cell-based, mouse; details: HEK293 cells plated on uncrosslinked PFHR-9 basement membrane; PHG 50 μM where present
# Experimental: FIGS. 5A-D—Peroxidasin uniquely crosslinks native collagen IV networks. (FIG. 5A) Experimental design of ‘overlay’ experiments. PFHR-9 cells were grown in the presence of phloroglucinol (PHG; 50 μM) to deposit uncrosslinked collagen IV (Col IV) networks. The cells were then removed, and the basement membrane was extracted with 4 M guanidine (Gdn) to inactivate endogenous peroxidasin. Cells stably transfected with human peroxidasin (PXDN) or untransfected HEK293 cells (WT HEK) were plated on top of the PFHR9 basement membrane, which was subsequently analyzed for collagen IV crosslink content. (FIG. 5B) Collagen IV-sulfilimine bond formation in the indicated experimental conditions as shown by stained SDS-PAGE gel. Two (WT HEK cells) or three (PXDN, with or without PHG) out of five independent experiments are shown. MW, molecular weight. (FIG. 5C) Coomassie blue-stained gel of collagen IVNC1 hexamers isolated from uncrosslinked PFHR-9 basement membrane overlaid with HEK293T cells transiently transfected with human peroxidasin cDNA, mouse myeloperoxidase cDNA (MPO), mouse lactoperoxidase cDNA (LPO) or empty vector (Mock). […]
# PFHR-9 cells were grown in the presence of 50 μM phloroglucinol to produce noncrosslinked collagen IV. […] Plates were incubated for 24-48 h, and collagen IV was analyzed for NC1 crosslink formation. […]
# [2] = Hypohalous acid production by peroxidases (taurine haloamine trapping); format: biochemical; details: for hypohalous acid formation: 1×PBS plus 100 μM NaBr or without added Br—; for HOCl production: 1×PBS without added Br— (FIG. 3D)
# Experimental: (§1) (FIG. 3A) SDS-PAGE of reactions consisting of 16 nM purified human peroxidasin (PXDN), 500 nM monomeric NC1 hexamer (3 μM potential crosslinks) and 10 μM H2O2 in 1×PBS. Control reactions without H2O2 or in the presence of the peroxidase inhibitor phloroglucinol (PHG; 50 μM) were also conducted. D represents crosslinked dimeric NC1 subunits, and M denotes uncrosslinked monomeric subunits. MW, molecular weight. (FIG. 3B) Coomassie blue-stained gel after SDS-PAGE of collagen IVNC1 hexamer is shown to illustrate relative amounts of sulfilimine-crosslinked dimeric (D) and uncrosslinked monomeric (M) subunits after incubation of uncrosslinked PFHR-9 basement membranes in varying buffer halide concentrations (Br— or Cl— as K+ salt) with or without 1 mM H2O2. (FIG. 3C) PXDN-mediated hypohalous acid (HOX) production expressed as nmol hypohalous acid generated per nmol enzyme per min, measured in 1×PBS plus 100 μM NaBr. Values represent mean±s.e.m. (n=3). (FIG. 3D) HOCl production measured directly in 1×PBS without added Br—. Values denote mean±s.e.m. (n=4). […] (FIG. 3E) HOX production, measured in nmol HOX generated per nmol enzyme per min for myeloperoxidase (MPO), eosinophil peroxidase (EPO) or LPO in 1×PBS plus 100 μM NaBr. Values represent mean±s.e.m. (n=3).
# Hypohalous acids were trapped as stable taurine haloamines, which oxidize tetramethylbenzidine to yield a colorimetric measure of hypohalous acid concentration and production (Dypbukt et al., 2005).
# Animal heme peroxidases, such as peroxidasin, myeloperoxidase, eosinophil peroxidase and lactoperoxidase, catalyze oxidative reactions using distinct halogenation and peroxidase cycles (Obinger, 2006). Both begin with hydrogen peroxide oxidation of the prosthetic heme iron to form an intermediate denoted compound I (Obinger, 2006). Compound I may oxidize halides into their respective hypohalous acids (or related oxidants in equilibrium), which may directly or indirectly halogenate susceptible moieties. Alternatively, compound I undergoes sequential reduction to form single electron-free radicals of energetically favorable substrates in the peroxidase cycle. Both pathways eventually regenerate reduced, native enzyme (Obinger, 2006). To determine whether peroxidasin forms sulfilimine bonds using a halogenation cycle, the inventors first tested whether peroxidasin crosslinks collagen IV in the absence of halides.
# collagen IV NC1 hexamer = assay: Purified peroxidases reacted with uncrosslinked NC1 hexamer and H2O2; format: biochemical, mouse; details: 16 nM enzyme, 500 nM NC1 hexamer, 10 μM H2O2, 1×PBS
# Experimental: as §1
# PHG, phloroglucinol; MW, molecular weight.
# If peroxidasin uses hypohalous acids as intermediates to form sulfilimine bonds, these intermediates should recapitulate the reaction when directly added to purified, uncrosslinked collagen IV NC1 hexamer. […] Alternatively, other peroxidasesis provided to form reactive hypohalous acids.
# myeloperoxidase = biological target: T1, myeloperoxidase (Homo sapiens, UniProt P05164); details: cited from earlier work
# T1 sequence (P05164 49-745): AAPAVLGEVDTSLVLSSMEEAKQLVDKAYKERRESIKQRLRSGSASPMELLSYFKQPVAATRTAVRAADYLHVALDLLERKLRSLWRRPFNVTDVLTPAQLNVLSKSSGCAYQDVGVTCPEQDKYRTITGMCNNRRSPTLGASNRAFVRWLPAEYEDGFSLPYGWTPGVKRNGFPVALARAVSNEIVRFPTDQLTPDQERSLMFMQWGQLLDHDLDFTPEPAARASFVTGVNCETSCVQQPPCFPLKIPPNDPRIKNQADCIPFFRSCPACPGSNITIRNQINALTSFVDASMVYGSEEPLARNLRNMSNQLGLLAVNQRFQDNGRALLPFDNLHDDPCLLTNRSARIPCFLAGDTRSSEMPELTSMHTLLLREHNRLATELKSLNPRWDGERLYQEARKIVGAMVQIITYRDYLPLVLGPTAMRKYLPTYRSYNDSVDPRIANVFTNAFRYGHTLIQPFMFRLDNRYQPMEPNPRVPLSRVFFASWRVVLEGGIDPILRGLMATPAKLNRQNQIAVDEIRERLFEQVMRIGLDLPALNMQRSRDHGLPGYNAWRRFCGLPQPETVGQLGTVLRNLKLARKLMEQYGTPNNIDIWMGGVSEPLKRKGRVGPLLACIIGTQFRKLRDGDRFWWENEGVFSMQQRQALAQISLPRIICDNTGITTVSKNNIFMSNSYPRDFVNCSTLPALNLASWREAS
# thyroid peroxidase = biological target: T2, thyroid peroxidase (Homo sapiens, UniProt P07202); details: cited from earlier work
# T2 sequence (P07202 19-933): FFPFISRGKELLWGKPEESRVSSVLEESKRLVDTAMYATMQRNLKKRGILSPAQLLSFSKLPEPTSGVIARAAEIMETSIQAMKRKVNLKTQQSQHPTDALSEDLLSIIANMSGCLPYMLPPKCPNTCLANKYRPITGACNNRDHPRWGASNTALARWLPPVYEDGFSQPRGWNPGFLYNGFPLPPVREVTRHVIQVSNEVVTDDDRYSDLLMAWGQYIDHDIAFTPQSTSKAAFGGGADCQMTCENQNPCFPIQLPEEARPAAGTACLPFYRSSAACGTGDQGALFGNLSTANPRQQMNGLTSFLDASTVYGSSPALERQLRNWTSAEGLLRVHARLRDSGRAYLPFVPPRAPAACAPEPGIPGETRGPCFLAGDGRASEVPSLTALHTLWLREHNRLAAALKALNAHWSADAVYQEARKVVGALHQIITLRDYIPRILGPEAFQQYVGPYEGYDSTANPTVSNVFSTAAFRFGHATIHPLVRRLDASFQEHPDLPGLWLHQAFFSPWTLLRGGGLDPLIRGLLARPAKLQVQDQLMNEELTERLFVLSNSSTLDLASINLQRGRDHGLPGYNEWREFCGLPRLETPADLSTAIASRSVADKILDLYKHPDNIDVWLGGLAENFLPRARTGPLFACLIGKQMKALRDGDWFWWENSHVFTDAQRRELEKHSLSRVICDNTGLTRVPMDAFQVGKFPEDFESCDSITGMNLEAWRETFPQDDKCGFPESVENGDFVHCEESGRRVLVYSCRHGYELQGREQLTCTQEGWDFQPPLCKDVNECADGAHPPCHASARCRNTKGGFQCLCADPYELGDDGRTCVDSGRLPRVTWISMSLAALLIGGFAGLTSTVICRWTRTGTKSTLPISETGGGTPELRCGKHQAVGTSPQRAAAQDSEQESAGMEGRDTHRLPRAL
# [3] = biological target: horseradish peroxidase (HRP) (Armoracia rusticana, UniProt P00433); details: with H2O2; cited from earlier work
# Lysyl oxidase = biological target: T3, Lysyl oxidase (Bos taurus, UniProt P33072); details: Tang et al., 1983; cited from earlier work
# T3 sequence (P33072 170-418): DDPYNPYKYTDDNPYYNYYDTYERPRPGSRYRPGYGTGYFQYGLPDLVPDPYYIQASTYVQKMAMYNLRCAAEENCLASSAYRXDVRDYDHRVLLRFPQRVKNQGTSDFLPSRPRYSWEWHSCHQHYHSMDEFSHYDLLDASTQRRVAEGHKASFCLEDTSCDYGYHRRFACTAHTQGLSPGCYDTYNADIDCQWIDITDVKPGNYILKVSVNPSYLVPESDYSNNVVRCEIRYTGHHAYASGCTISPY
# transglutaminase = details: Candi et al., 1995; cited from earlier work
# Sequence of horseradish peroxidase (HRP) (P00433 31-338 limits assumed): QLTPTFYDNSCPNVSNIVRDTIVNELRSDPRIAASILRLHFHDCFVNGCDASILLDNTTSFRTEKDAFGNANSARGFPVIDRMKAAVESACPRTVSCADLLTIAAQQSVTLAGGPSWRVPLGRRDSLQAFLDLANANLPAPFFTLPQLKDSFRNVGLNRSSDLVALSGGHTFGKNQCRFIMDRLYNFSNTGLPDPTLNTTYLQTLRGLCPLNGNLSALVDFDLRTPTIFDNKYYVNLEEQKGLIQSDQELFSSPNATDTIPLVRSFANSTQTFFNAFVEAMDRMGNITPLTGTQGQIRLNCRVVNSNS
# Sequence of peroxidase (Q9VZZ4 24-1527): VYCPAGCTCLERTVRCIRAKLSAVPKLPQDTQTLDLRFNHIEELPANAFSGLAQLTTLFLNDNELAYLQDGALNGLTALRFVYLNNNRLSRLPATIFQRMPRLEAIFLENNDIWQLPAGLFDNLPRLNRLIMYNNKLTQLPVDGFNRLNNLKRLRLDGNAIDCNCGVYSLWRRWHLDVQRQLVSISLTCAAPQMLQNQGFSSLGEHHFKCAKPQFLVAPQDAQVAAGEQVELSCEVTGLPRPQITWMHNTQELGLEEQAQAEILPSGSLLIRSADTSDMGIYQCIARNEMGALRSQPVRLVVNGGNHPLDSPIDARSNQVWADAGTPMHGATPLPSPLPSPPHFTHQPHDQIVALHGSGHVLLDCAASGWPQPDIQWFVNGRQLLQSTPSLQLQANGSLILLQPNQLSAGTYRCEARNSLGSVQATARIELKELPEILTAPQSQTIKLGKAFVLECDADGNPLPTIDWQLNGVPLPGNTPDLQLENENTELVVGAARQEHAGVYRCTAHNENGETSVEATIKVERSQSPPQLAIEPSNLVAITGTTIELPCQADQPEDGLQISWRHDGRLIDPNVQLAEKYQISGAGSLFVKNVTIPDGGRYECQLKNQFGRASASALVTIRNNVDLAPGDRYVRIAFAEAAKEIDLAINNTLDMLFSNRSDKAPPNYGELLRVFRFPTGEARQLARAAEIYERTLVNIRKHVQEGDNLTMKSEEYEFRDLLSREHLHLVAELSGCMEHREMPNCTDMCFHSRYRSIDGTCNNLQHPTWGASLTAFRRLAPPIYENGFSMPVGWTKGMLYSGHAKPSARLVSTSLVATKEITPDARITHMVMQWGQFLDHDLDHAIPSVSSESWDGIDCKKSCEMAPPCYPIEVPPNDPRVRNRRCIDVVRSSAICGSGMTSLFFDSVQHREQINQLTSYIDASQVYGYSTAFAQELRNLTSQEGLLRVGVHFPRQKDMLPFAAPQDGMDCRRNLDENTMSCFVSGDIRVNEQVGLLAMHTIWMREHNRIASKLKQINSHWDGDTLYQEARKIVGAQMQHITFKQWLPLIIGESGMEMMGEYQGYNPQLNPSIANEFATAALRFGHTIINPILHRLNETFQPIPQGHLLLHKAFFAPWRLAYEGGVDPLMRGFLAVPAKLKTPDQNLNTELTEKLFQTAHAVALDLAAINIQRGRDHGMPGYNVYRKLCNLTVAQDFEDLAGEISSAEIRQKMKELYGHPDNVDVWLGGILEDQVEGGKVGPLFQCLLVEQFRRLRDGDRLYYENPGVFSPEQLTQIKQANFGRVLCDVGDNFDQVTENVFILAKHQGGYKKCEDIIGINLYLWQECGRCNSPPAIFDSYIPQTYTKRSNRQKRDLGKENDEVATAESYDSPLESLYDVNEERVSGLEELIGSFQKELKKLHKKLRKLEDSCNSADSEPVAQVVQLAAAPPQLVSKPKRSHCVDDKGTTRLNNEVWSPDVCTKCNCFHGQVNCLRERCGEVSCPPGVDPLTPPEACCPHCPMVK
molecule,measurement,setting,value
"Oc1cc(O)cc(O)c1 [phloroglucinol, reference compound]",formation of collagen IV crosslinks,PFHR-9 cells,prevented formation of collagen IV crosslinks
same,egg aspect ratio under peroxidasin inhibition,Drosophila eggs,dose-dependent suppression in egg aspect ratio
same,egg aspect ratio under peroxidasin inhibition,Drosophila eggs; listed as PHG,dose-dependent reduction in the exaggerated egg elongation
same,IC50,peroxidase,0.5 µM
same,crosslinking of native collagen IV network by overlaid cells,[1],failed to crosslink collagen IV
"peroxidasin: heterologously expressed and purified human peroxidasin, a basement membrane heme peroxidase",hypohalous acid formation,[2],formed hypobromous and hypochlorous acid at modest rates with a preference for bromide
same,HOCl production,[2],significantly greater than that mediated by lactoperoxidase
same,formation of sulfilimine crosslinks in NC1 hexamer,collagen IV NC1 hexamer,robust formation of crosslinked dimeric subunits
same,crosslinking of native collagen IV network by overlaid cells,[1],Only peroxidasin formed sulfilimine bonds in collagen IV
lactoperoxidase: animal heme peroxidase used as comparator,hypohalous acid formation,[2],formed neither hypohalous acid
same,HOCl production,[2],not statistically different from zero
same,formation of sulfilimine crosslinks in NC1 hexamer,collagen IV NC1 hexamer,poorly catalyzed crosslink formation
Cn1cc[nH]c1=S [methimazole],inhibition of myeloperoxidase,myeloperoxidase; 3 mM,70%
same,formation of collagen IV crosslinks,PFHR-9 cells,prevented formation of collagen IV crosslinks
same,IC50,thyroid peroxidase,0.8 µM
[N-]=[N+]=[N-] [azide],Ki,[3],1470 µM
same,kinact,[3],0.69 min⁻¹
N#CCCN [β-aminopropionitrile],formation of collagen IV crosslinks,PFHR-9 cells,had no effect
same,IC50,Lysyl oxidase,3 to 8 µM
NCCCCN [putrescine],Km,transglutaminase,26 to 847 µM
same,formation of collagen IV crosslinks,PFHR-9 cells,had no effect
Nc1nc[nH]n1 [3-aminotriazole],inhibition of myeloperoxidase,myeloperoxidase; 10 mM,near-complete inhibition
same,formation of collagen IV crosslinks,PFHR-9 cells,prevented formation of collagen IV crosslinks
same,inhibition of thyroid peroxidase,thyroid peroxidase; 2 mM,near-complete inhibition
eosinophil peroxidase: animal heme peroxidase used as comparator,hypohalous acid formation,[2],primarily yielded hypobromous acid
same,formation of sulfilimine crosslinks in NC1 hexamer,collagen IV NC1 hexamer,formed sulfilimine crosslinks in collagen IV
